{
  "source": "patent US8546603B2",
  "about": "“Substituted cyclopentanes having prostaglandin activity” (Allergan, Inc., priority 2007, dated 2013)",
  "key": {"EP2 [1]": {"target": "T1, EP2 (Homo sapiens, UniProt P43116)", "T1 sequence (P43116 whole entry)": "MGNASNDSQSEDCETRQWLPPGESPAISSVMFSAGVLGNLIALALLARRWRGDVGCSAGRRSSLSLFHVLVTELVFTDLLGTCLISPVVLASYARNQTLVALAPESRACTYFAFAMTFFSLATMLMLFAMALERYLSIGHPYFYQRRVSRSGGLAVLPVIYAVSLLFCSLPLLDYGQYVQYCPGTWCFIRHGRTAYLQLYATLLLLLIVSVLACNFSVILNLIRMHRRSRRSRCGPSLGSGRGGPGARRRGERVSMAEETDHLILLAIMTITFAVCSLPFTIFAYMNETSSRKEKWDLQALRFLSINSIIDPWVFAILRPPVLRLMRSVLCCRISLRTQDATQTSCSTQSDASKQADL", "assay": "EP2 binding assay", "from_the_text": "(§1) U.S. patent application Ser. No. 11/553,143, filed on Oct. 26, 2006, incorporated by reference herein, describes the methods used to obtain the in vitro data in Table 1 below."}, "EP4 [2]": {"target": "T2, EP4 (Homo sapiens, UniProt P35408)", "T2 sequence (P35408 whole entry)": "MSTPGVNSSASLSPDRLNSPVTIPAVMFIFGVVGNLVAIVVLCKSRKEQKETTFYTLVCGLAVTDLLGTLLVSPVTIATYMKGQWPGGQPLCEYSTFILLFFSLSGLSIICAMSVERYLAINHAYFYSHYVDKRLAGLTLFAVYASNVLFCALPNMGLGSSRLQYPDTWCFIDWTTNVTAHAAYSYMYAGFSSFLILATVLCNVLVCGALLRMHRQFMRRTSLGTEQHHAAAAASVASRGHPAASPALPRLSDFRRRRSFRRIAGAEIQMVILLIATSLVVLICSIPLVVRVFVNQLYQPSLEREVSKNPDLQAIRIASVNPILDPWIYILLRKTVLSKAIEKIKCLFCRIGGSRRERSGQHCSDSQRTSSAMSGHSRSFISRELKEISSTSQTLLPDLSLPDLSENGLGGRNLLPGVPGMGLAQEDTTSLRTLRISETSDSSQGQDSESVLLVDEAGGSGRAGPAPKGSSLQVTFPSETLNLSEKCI", "assay": "EP4 binding assay", "from_the_text": "as §1"}, "EP3": {"target": "T3, EP3 (Homo sapiens, UniProt P43115)", "T3 sequence (P43115 1-390)": "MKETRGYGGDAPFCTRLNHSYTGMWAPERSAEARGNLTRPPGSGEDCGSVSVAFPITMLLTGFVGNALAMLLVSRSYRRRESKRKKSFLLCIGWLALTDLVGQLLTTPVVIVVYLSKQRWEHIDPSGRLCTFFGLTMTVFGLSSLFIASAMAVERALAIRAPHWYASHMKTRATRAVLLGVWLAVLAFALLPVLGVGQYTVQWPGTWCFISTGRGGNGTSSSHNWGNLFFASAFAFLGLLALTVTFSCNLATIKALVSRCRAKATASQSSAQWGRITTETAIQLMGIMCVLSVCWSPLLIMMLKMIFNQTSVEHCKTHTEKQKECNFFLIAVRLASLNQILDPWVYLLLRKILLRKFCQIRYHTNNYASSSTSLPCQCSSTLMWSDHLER", "assay": "EP3 functional assay", "format": "cell-based", "from_the_text": "as §1"}, "TP": {"target": "T4, TP (Homo sapiens, UniProt P21731)", "T4 sequence (P21731 1-343)": "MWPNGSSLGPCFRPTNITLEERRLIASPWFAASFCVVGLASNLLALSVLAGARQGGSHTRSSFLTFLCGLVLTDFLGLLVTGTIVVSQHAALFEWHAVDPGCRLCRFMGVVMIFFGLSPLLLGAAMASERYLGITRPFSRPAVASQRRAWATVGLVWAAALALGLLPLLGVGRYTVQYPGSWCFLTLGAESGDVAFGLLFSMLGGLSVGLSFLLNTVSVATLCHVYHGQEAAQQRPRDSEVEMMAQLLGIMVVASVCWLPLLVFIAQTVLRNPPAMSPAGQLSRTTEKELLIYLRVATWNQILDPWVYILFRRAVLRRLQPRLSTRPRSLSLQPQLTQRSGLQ", "assay": "TP functional assay", "format": "cell-based", "from_the_text": "as §1"}, "EP1": {"target": "T5, EP1 (Homo sapiens, UniProt P34995)", "T5 sequence (P34995 1-402)": "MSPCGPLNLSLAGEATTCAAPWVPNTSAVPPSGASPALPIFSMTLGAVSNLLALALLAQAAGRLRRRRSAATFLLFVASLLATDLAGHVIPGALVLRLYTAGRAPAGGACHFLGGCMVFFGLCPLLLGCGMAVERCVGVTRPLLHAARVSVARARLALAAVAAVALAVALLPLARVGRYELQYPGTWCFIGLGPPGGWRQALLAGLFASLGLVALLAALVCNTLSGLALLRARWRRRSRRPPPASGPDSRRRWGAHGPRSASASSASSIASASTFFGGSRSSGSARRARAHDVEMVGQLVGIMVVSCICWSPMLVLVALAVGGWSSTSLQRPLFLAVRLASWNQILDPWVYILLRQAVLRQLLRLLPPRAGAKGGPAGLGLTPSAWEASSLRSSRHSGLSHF", "assay": "EP1 functional assay", "format": "cell-based", "from_the_text": "as §1"}, "EP4 [3]": {"target": "T2, EP4", "assay": "EP4 Ca2+ signal assay", "format": "cell-based", "conditions": "for EP4 Ca2+ signal % PGE2: relative to PGE2", "from_the_text": "as §1"}, "EP2 [4]": {"target": "T1, EP2", "assay": "EP2 Ca2+ signal assay", "format": "cell-based", "conditions": "for EP2 Ca2+ signal % PGE2: relative to PGE2", "from_the_text": "as §1"}, "EP2 [5]": {"target": "T1, EP2", "assay": "EP2 cAMP assay", "format": "cell-based", "from_the_text": "as §1"}},
  "note": "Read-outs that look alike come from different tables or passages of the source.",
  "data": [
    {"smiles": "C[C@@H](O)CCC[C@H](O)/C=C/[C@H]1[C@H](O)CC(=O)[C@@H]1CCCCCCC(=O)O", "note": "[AGN-191287]", "values": [
      {"measurement": "EC50", "setting": "EP2 [1]", "result": 487, "unit": "nM"},
      {"measurement": "EP2 Binding % Inh", "setting": "EP2 [1]", "result": 87, "unit": "%"},
      {"measurement": "EC50", "setting": "EP4 [2]", "result": 1670, "unit": "nM"},
      {"measurement": "EP4 Binding % Inh", "setting": "EP4 [2]", "result": 75, "unit": "%"},
      {"measurement": "EC50", "setting": "EP3", "result": 21, "unit": "nM"},
      {"measurement": "EC50", "setting": "TP", "result": 5270, "unit": "nM"},
      {"measurement": "EC50", "setting": "EP1", "result": 2760, "unit": "nM"},
      {"measurement": "EC50", "setting": "EP4 [3]", "result": 193, "unit": "nM"},
      {"measurement": "EP4 Ca2+ signal % PGE2", "setting": "EP4 [3]", "result": 102, "unit": "%"},
      {"measurement": "EC50", "setting": "EP2 [4]", "result": 34, "unit": "nM"},
      {"measurement": "EP2 Ca2+ signal % PGE2", "setting": "EP2 [4]", "result": 100, "unit": "%"},
      {"measurement": "EC50", "setting": "EP2 [5]", "result": 0.9, "unit": "nM"}
    ]},
    {"smiles": "C[C@@H](O)CCC[C@H](O)/C=C/[C@@H]1[C@@H](CCCc2ccc(C(=O)O)s2)[C@H](Cl)C[C@H]1O", "note": "[AGN-217510]", "values": [
      {"measurement": "EC50", "setting": "EP2 [1]", "result": 66, "unit": "nM"},
      {"measurement": "EP2 Binding % Inh", "setting": "EP2 [1]", "result": 99, "unit": "%"},
      {"measurement": "EC50", "setting": "EP4 [2]", "result": 2350, "unit": "nM"},
      {"measurement": "EP4 Binding % Inh", "setting": "EP4 [2]", "result": 64, "unit": "%"},
      {"measurement": "EC50", "setting": "EP3", "result": 499, "unit": "nM"},
      {"measurement": "EC50", "setting": "EP1", "result": 724, "unit": "nM"},
      {"measurement": "EC50", "setting": "EP4 [3]", "result": 145, "unit": "nM"},
      {"measurement": "EP4 Ca2+ signal % PGE2", "setting": "EP4 [3]", "result": 121, "unit": "%"},
      {"measurement": "EC50", "setting": "EP2 [4]", "result": 7.4, "unit": "nM"},
      {"measurement": "EP2 Ca2+ signal % PGE2", "setting": "EP2 [4]", "result": 106, "unit": "%"},
      {"measurement": "EC50", "setting": "EP2 [5]", "result": 0.06, "unit": "nM"}
    ]},
    {"smiles": "C[C@H](O)CCC[C@H](O)/C=C/[C@@H]1[C@@H](CCCc2ccc(C(=O)O)s2)[C@H](Cl)C[C@H]1O", "note": "[AGN-221568]", "values": [
      {"measurement": "EC50", "setting": "EP2 [1]", "result": 381, "unit": "nM"},
      {"measurement": "EP2 Binding % Inh", "setting": "EP2 [1]", "result": 91, "unit": "%"},
      {"measurement": "EC50", "setting": "EP4 [2]", "result": 1280, "unit": "nM"},
      {"measurement": "EP4 Binding % Inh", "setting": "EP4 [2]", "result": 98, "unit": "%"},
      {"measurement": "EC50", "setting": "EP4 [3]", "result": 35, "unit": "nM"},
      {"measurement": "EP4 Ca2+ signal % PGE2", "setting": "EP4 [3]", "result": 120, "unit": "%"},
      {"measurement": "EC50", "setting": "EP2 [4]", "result": 20, "unit": "nM"},
      {"measurement": "EP2 Ca2+ signal % PGE2", "setting": "EP2 [4]", "result": 91, "unit": "%"},
      {"measurement": "EC50", "setting": "EP2 [5]", "result": 1.4, "unit": "nM"}
    ]},
    {"smiles": "COC(/C=C/[C@@H]1[C@@H](CCCc2ccc(C(=O)O)s2)[C@H](Cl)C[C@H]1O)CCC[C@@H](C)O", "note": "(stereo partly shown) [AGN-219310]", "values": [
      {"measurement": "EC50", "setting": "EP2 [1]", "result": 171, "unit": "nM"},
      {"measurement": "EP2 Binding % Inh", "setting": "EP2 [1]; listed as 219310", "result": 90, "unit": "%"},
      {"measurement": "EC50", "setting": "EP4 [2]", "result": "> 10000", "unit": "nM"},
      {"measurement": "EP4 Binding % Inh", "setting": "EP4 [2]; listed as 219310", "result": 6, "unit": "%"},
      {"measurement": "EC50", "setting": "EP2 [4]", "result": 281, "unit": "nM"},
      {"measurement": "EP2 Ca2+ signal % PGE2", "setting": "EP2 [4]; listed as 219310", "result": 77, "unit": "%"},
      {"measurement": "EC50", "setting": "EP2 [5]", "result": 3, "unit": "nM"}
    ]},
    {"smiles": "C[C@@H](O)CCC[C@H](O)/C=C/[C@H]1[C@H](O)CC(=O)[C@@H]1C/C=C\\CCCC(=O)O", "note": "[AGN-191286]", "values": [
      {"measurement": "EC50", "setting": "EP2 [1]", "result": 530, "unit": "nM"},
      {"measurement": "EP2 Binding % Inh", "setting": "EP2 [1]", "result": 92, "unit": "%"},
      {"measurement": "EC50", "setting": "EP4 [2]", "result": 1510, "unit": "nM"},
      {"measurement": "EP4 Binding % Inh", "setting": "EP4 [2]", "result": 75, "unit": "%"},
      {"measurement": "EC50", "setting": "EP3", "result": 11, "unit": "nM"},
      {"measurement": "EC50", "setting": "TP", "result": 3010, "unit": "nM"},
      {"measurement": "EC50", "setting": "EP1", "result": 308, "unit": "nM"},
      {"measurement": "EC50", "setting": "EP4 [3]", "result": 192, "unit": "nM"},
      {"measurement": "EP4 Ca2+ signal % PGE2", "setting": "EP4 [3]", "result": 100, "unit": "%"},
      {"measurement": "EC50", "setting": "EP2 [4]", "result": 28, "unit": "nM"},
      {"measurement": "EP2 Ca2+ signal % PGE2", "setting": "EP2 [4]", "result": 100, "unit": "%"},
      {"measurement": "EC50", "setting": "EP2 [5]", "result": 0.7, "unit": "nM"}
    ]},
    {"smiles": "COC(/C=C/[C@@H]1[C@@H](CCCc2ccc(C(=O)O)s2)[C@H](Cl)C[C@H]1O)CCC[C@@H](C)O", "note": "(stereo partly shown) [AGN-219309]", "values": [
      {"measurement": "EC50", "setting": "EP2 [1]", "result": 3310, "unit": "nM"},
      {"measurement": "EP2 Binding % Inh", "setting": "EP2 [1]; listed as 219309", "result": 68, "unit": "%"},
      {"measurement": "EC50", "setting": "EP4 [2]", "result": "> 10000", "unit": "nM"},
      {"measurement": "EP4 Binding % Inh", "setting": "EP4 [2]; listed as 219309", "result": 9, "unit": "%"},
      {"measurement": "EC50", "setting": "EP2 [4]", "result": 4020, "unit": "nM"},
      {"measurement": "EP2 Ca2+ signal % PGE2", "setting": "EP2 [4]; listed as 219309", "result": 63, "unit": "%"},
      {"measurement": "EC50", "setting": "EP2 [5]", "result": 25, "unit": "nM"}
    ]}
  ]
}
